In PubChem BioAssay AID179 (DTP/NCI, 2004) one finds EC50, IC50 and outcome data, which are given here for 67 compounds.

In general, pEC50 refers to the EC50 on a negative log10 scale, so that one unit is a factor of ten. Broadly, the pIC50 is the IC50 on a negative log10 scale, so that one unit is a factor of ten.

The test concerns CEM cells HIV-1 protection, formazan growth assay. Description: NCI AIDS Antiviral Assay. The conditions noted are these: for pIC50: measured here: growth of uninfected CEM cells. The method in brief: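 CEM (human) cells, HIV-1 infected vs uninfected, 5-point dosing, formazan growth read-out. Retest threshold 50% protection.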

pEC50, pIC50: −log10 of the molar value. Values joined by “and” are separate entries in the source; they are usually repeats but may differ in a detail not shown here. Equal entries are not always repeated. Active and inactive are the calls of the source.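 The calls were made as follows: active = compounds giving half or more protection of infected cells from virus-caused growth loss, again on retest; inactive = the rest.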 Where a SMILES comes first, the peptide text is derived from it. [ ]: non-standard residue; d: D form. The star is where a group is joined. Cbz = O=C(OCc1ccccc1)*; Aib = CC(C)(N)C(=O)O; OBn = c1ccc(CO*)cc1

Turning to `Nc1nc2c(C(=O)c3cccs3)nnn2c2cccc(Cl)c12`, the pEC50 is under 4.94 and the pIC50 was under 4.94.
For `CCO/C(O)=c1/s/c(=C(\C#N)c2nc3ccccc3[nH]2)n(-c2ccccc2)c1=N`, the pEC50 is under 4.75 and the pIC50 is 4.82.
Taken in the same sequence, the figures for `FC(F)(Sc1nc2ccccc2[nH]1)c1nc2ccccc2o1` were under 3.70 and under 3.70.
With `O=C1c2ccoc2C(=O)c2oc(=O)ccc21`, the pEC50 was under 3.99 and the pIC50 is 5.24.
With `COc1cc(C(=O)c2cocc2C(=O)c2ccc3c(c2)OCO3)cc(OC)c1OC`, the result was inactive.
On the same count and under the same terms, under `O=C1c2ccccc2C(=O)c2cc3c(cc21)CS(=O)C3` stands “inactive”.
As for `O=[N+]([O-])c1[nH]cnc1S`, the pEC50 is under 3.70 and the pIC50 was under 3.70.
As to `CSc1nc2c(=O)n(-c3ccccc3)c(=S)n(-c3ccccc3)c2s1`, the pEC50 is under 3.70 and the pIC50 was 3.93.
For `CC#N.CC#N.COC(=O)[C@@H]1COC(=O)[N-]1.COC(=O)[C@@H]1COC(=O)[N-]1.COC(=O)[C@@H]1COC(=O)[N-]1.COC(=O)[C@@H]1COC(=O)[N-]1.[Rh+2].[Rh+2]`, the pEC50 is under 3.70 and the negative-log IC50 (pIC50) is under 3.70.
In the case of `Cc1cc(Nc2ccc(S(=O)(=O)O)c3cc(S(=O)(=O)O)cc(S(=O)(=O)O)c23)c2ccccc2n1`, the pEC50 was under 3.70 and the pIC50 is under 3.70.
For the compound `Cc1cc2ccc3c(c2oc1=O)[C@@H](OC(=O)C12CCC(C)(C(=O)O1)C2(C)C)[C@@H](OC(=O)C12CCC(C)(C(=O)O1)C2(C)C)C(C)(C)O3` (some centres undefined), the pEC50 was 6.68 and the pIC50 was 4.73.
As for `Cc1ccc(/C=C2/N=C(N/N=C\C(O)C(O)C(O)C(O)CO)NC2=O)cc1` (centres undefined), the pEC50 was under 3.70; the pIC50 was 3.91 and < 3.70 and 3.88.
With `COc1ccc(C(=O)Oc2c(C#N)sc3c2c(=O)n(-c2ccccc2)c(=S)n3-c2ccccc2)cc1`, the pEC50 was under 3.70 and the pIC50 is 5.29.
Taken in the same sequence, the figures for `COC1CC(OC2C(C)OC(OC3C(C)OC(OC4C(C)OC(O[C@H]5CC[C@@]6(C)C(=CC[C@]7(O)[C@@H]6C[C@@H](OC(=O)/C=C/c6ccccc6)[C@@]6(C)[C@]7(O)CC[C@@]6(O)C(C)=O)C5)CC4OC)CC3OC)CC2OC)OC(C)C1O` (some centres undefined) were under 3.70 and 4.66.
Taken in the same sequence, the figures for `O=C1c2ccccc2-c2cc(S)c([N+](=O)[O-])cc21` were under 3.70 and 3.84.
Taken in the same sequence, the figures for `COC(=O)C(CSSCC(C(=O)NC(Cc1ccccc1)C(=O)NCC(=O)OC(C)(C)C)N1C(=O)CCC1=O)NC(=O)OCc1ccccc1` (centres undefined) were under 3.70 and 4.69.
As for `COCCNC1CCC(=O)c2[nH]c3ccccc3c21` (centres undefined), the pEC50 was under 3.70 and the pIC50 was under 3.70.
Turning to `COC(=O)CC(=O)Nc1sccc1S(=O)(=O)c1ccccc1`, the pEC50 is under 3.70 and the pIC50 is 3.99.
Turning to `C[C@]12CCCC(=O)C1(O)C[C@H](C(=O)O)CC2` (some centres undefined), the outcome was inactive.
As for `O=C(N/N=C/c1ccccc1O)c1ccccc1Nc1ccccc1C(=O)N/N=C/c1ccccc1O`, the pEC50 is under 4.37 and the pIC50 is 5.74.
The like results for `Cc1cc(C)nc(NS(=O)(=O)c2ccc(NC(=O)c3cccc4cc5ccccc5nc34)cc2)n1` were, in that order, under 4.04 and 5.42.
Taken in the same sequence, the figures for `S=C(Nc1ccc2c3c(cccc13)CC2)Nc1ccc2c3c(cccc13)CC2` were under 3.70 and 4.37.
Taken in the same sequence, the figures for `O=C(O)CCSSCCCS(=O)O` were 3.98 and 3.72.
`Cc1cccc(Cl)c1NC(N)=S`: the pEC50 was under 4.44 and the pIC50 was under 4.44.
Consider `CCN(CC)c1cccc2c1C1(O)CCC3(CC21)OCCCCO3` (centres undefined), for which the pEC50 is under 3.70 and the pIC50 is 4.01.
The like results for `O=C(Nc1ccc(F)c(Cl)c1)Nc1cc(Cl)ccc1SSc1ccc(Cl)cc1NC(=O)Nc1ccc(F)c(Cl)c1` were, in that order, under 4.18 and 4.93.
Turning to `CN1[C@H]2C=CC(=O)[C@]1(Cl)[C@H]1C(=O)N(c3ccccc3)C(=O)[C@@H]21`, the pEC50 is under 3.79 and the pIC50 is 5.41.
Take `COc1ccc(CNc2nc3cc(C(F)(F)F)ccc3nc2C(=O)O)cc1OC`: the pEC50 is under 3.70 and the pIC50 was 4.18.
Taken in the same sequence, the figures for `O=[N+]([O-])c1cc(Cl)c(O)c(N=Nc2cc(S(=O)(=O)O)c3cccc4c3c2N=NN4)c1` were under 4.04 and 4.29.
Turning to `O=C(O)CCC(NC(=O)c1ccc(CNc2nc3cc(C(F)(F)F)ccc3nc2C(=O)O)cc1)C(=O)O` (centres undefined), the pEC50 is under 3.70 and the pIC50 is under 3.70.
For `N#CCCN(c1ccc(C=O)cc1)S(=O)(=O)c1ccccc1`, the pEC50 was under 4.64 and the pIC50 was under 4.64.
In the case of `Cc1ccc2c(c1)CSCCO2`, the pEC50 is under 3.98 and the pIC50 was 4.83.
On to `O=c1ccccc2c(/C=C/c3ccccc3)nn(-c3ccccc3)c12`, for which the outcome was inactive.
Consider `CCCCCCCCCCCCCC(=O)OC1C(O)C(CO)OC(OC)C1NC(=O)N(CCCl)N=O` (centres undefined), for which the pEC50 was under 4.46 and the pIC50 is under 4.46.
For `Cc1nc2ccc(Cl)cc2c2c1CCS2`, the pEC50 is under 3.70 and the pIC50 was 3.93.
As for `C[C@H]1O[C@@H](c2c(O)ccc3ccccc23)C[C@@H](N(C)C)C1O` (some centres undefined), the pEC50 is under 3.70 and the pIC50 was 4.01.
As to `COc1ccc2c(c1)OC[C@@H]1c3cc(OC)c(OCc4ccccc4)cc3O[C@H]21`, the pEC50 is 5.18 and the pIC50 is under 4.00.
The like results for `CCn1c2c(c3ccccc3c1=O)C(=O)c1ccccc1-2` were, in that order, under 4.58 and under 4.58.
`O=C1NC(=S)N/C1=C\c1cccs1`: the pEC50 was under 3.70 and the pIC50 was 3.74.
Taken in the same sequence, the figures for `N#Cc1nc(NC(=O)c2ccccc2C(=O)O)c(C#N)[nH]1` were under 3.70 and under 3.70.
`COC1/C=C\C=C(/C)C(=O)NC2=CC(=O)C(NCCCl)=C(CC(C)CC(OC)C(O)C(C)/C=C(/C)C1OC(N)=O)C2=O` (centres undefined): the result was inactive.
Still for that read-out and setting: under `O=C1C(=O)c2ccccc2C(O)=C1CCCc1ccc(Oc2ccccc2)cc1` stands “inactive”.
On to `CN(C)CCC=C1c2ccccc2CCc2ccccc21`, for which the pEC50 was under 3.70 and the pIC50 was 4.46.
For `CCc1c(Cc2[nH]c(Cc3[nH]c(C=O)c(C)c3CC)c(CC)c2CC)[nH]c(C=O)c1C`, the pEC50 was under 3.70 and the pIC50 was under 3.70.
As for `c1cnn(P2(n3cccn3)=NP(n3cccn3)(n3cccn3)=NP(n3cccn3)(n3cccn3)=NP(n3cccn3)(n3cccn3)=NP(n3cccn3)(n3cccn3)=NP(n3cccn3)(n3cccn3)=N2)c1`, the pEC50 was under 3.70 and the negative-log IC50 (pIC50) is under 3.70.
Turning to `Cc1ccc(S(=O)(=O)SCc2ccccc2)cc1`, the pEC50 was under 4.17 and the pIC50 was 5.25.
The like results for `O=C(O)CCN(CCC(=O)O)c1ccc(/C=C2\SC(=S)NC2=O)cc1` were, in that order, under 3.70 and 3.77.
Take `CCOC(=O)c1cc2sc(NC(=O)c3ccccc3)nc2o1`: the result was inactive.
Consider `Cc1cc2c(c(C=NCc3ccccc3)c1)OC1(C=C2)Oc2ccccc2C(=O)N1C` (centres undefined), for which the pEC50 is under 3.70 and the pIC50 was 4.28.
Consider `O=C1C(c2ccc(Br)cc2)=[N+]([O-])c2ccccc21`, for which the result was inactive.
As to `COc1cc(/C=C/C(=N\NS(=O)(=O)c2ccc(C)cc2)c2sc(NNC(C)=O)nc2C)ccc1O`, the pEC50 is under 4.33 and the pIC50 is under 4.33.
Turning to `O=c1cc2ccccc2nn1-c1ccccc1Cl`, the pEC50 is under 3.58 and the pIC50 is 3.96.
With `CCCCCCCCCCCCCC(=O)O[C@@H]1[C@@H](C)[C@@]2(O)[C@@H](C=C(CO)C[C@]3(O)C(=O)C(C)=C[C@@H]23)[C@@H]2C(C)(C)[C@]12OC(C)=O`, the outcome was active.
Consider `Cc1ccc(Nc2nc(=O)[nH]c(=O)[nH]2)cc1N=[N+]=[N-]`, for which the pEC50 was under 3.70 and the pIC50 was under 3.70.
With `CC(C)OC(=O)c1ccc(CCC2=CC(=O)C=CC2=O)cc1`, the pEC50 is under 3.70 and the pIC50 was 5.08.
In the case of `O=C1c2ccccc2C2CCC1c1ccccc12` (centres undefined), the pEC50 is under 4.49 and the pIC50 was 4.58.
The like results for `CC(NC(=O)C(C)(C)NC(=O)C(CC(=O)OCc1ccccc1)NC(=O)OCc1ccccc1)C(N)=O` (centres undefined) (Cbz-Asp(OBn)-[Aib]-Ala-NH2; configuration not given here) were, in that order, under 3.70 and under 3.70.
Taken in the same sequence, the figures for `COC(=O)C(CC(=O)c1cc2c(cc1I)OCO2)Cc1cc(OC)c(OC)c(OC)c1I` (centres undefined) were under 4.83 and under 4.83.
Taken in the same sequence, the figures for `CCOC(=O)C(CC(C)C)NC(=O)c1cc(SC#N)c(C)c2c1Nc1c(c(C)c3oc(=O)c(C)nc3c1C(=O)NC(CC(C)C)C(=O)OCC)O2` (centres undefined) were under 5.30 and under 5.30.
With `COc1ccc(Cl)cc1NC(=O)O/N=C(\Cl)C(C)C`, the pEC50 is under 4.70 and the pIC50 was 5.60.
The like results for `CC(=O)OCC1OC(n2c3c(c(-c4ccco4)c(C#N)c2=S)CCC3)C(OC(C)=O)C(OC(C)=O)C1OC(C)=O` (centres undefined) were, in that order, under 3.70 and 5.01.
The like results for `Cc1cc(S(=O)(=O)/N=C(/NN)Nc2ccc(Cl)cc2)c(S)cc1Cl` were, in that order, under 3.70 and 5.00.
With `CCN(CC)/[N+]([O-])=N/OS(=O)(=O)N(C)C`, the pEC50 was under 3.70 and the pIC50 is under 3.70.
For the compound `S=C(N/N=C(/c1ccccc1)c1ccccn1)Nc1ccc(Cl)cc1`, the pEC50 was under 6.70 and the pIC50 was 6.91.
On to `O=C(NC1CCCC1=O)c1ccccc1` (centres undefined), for which the result was inactive.
As for `CCN1C(=O)c2cc(OC)c(OC)cc2C(=O)C12OC(=O)c1cc3c(cc12)OCO3` (centres undefined), the pEC50 was under 3.70 and the pIC50 was 4.03.
Taken in the same sequence, the figures for `OC1c2ccccc2[C@@H]2[C@H]1[C@@H](c1ccccc1)C1(Cc3ccccc3C1O)[C@H]2c1ccccc1` (some centres undefined) were under 3.70 and 5.04.
